From ChEMBL document CHEMBL1201862, “PubChem BioAssay data set” (2004)
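Each compound was tested at five concentrations against cells in 96-well plates for 48 hours. GI50 = concentration required for 50% inhibition of growth.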 Activity calls are given as the source filed them. No stated cut-off is given here; in the data, active = GI50 up to about 1.1 µM and inactive = higher. *1 amine or outer side, *2 acyl side, *3 side chain or, on linkers, in order; H or OH if unused. Where a SMILES comes first, the peptide text is derived from it. [ ]: non-standard residue; d: D form. The star is where a group is joined. ξ: configuration not given here. X53 = CC(C)C[C@H](N[*:1])C1=N[C@H](C(=O)[*:2])CS1; Ile(3ξ) = CCC(C)[C@H](N)C(=O)O; Allyl(1,1-Me2) = C=CC(C)(C)*

Legend:
Experiment in all cases: DTP human tumour cell line panel, 48 h
[1] = test system: SNB-75
[2] = test system: NCI/ADR-RES
[3] = test system: UACC-257
[4] = test system: M14
[5] = test system: OVCAR-5
[6] = test system: SF-268
[7] = test system: A549
[8] = test system: MDA-N
[9] = test system: 786-0
[10] = test system: NCI-H226
[11] = test system: HL-60
[12] = test system: KM12
[13] = test system: SF-539
[14] = test system: OVCAR-3
[15] = test system: SR
[16] = test system: LOX IMVI
[17] = test system: HOP-92
[18] = test system: OVCAR-4
[19] = test system: SK-MEL-28

Row | Structure (SMILES) | GI50 [1] | GI50 [2] | GI50 [3] | GI50 [4] | GI50 [5] | GI50 [6] | GI50 [7] | GI50 [8] | GI50 [9] | GI50 [10] | GI50 [11] | GI50 [12] | GI50 [13] | GI50 [14] | GI50 [15] | GI50 [16] | GI50 [17] | GI50 [18] | GI50 [19]
1 | Cc1ncc([N+](=O)[O-])n1CCNC(=O)CCCCCn1ccnc1[N+](=O)[O-] | > 100 µM (inactive) | > 100 µM (inactive) | > 100 µM (inactive) | > 100 µM (inactive) | > 100 µM (inactive) | > 100 µM (inactive) | > 100 µM (inactive) | > 100 µM (inactive) | > 100 µM (inactive) | > 100 µM (inactive) | > 100 µM (inactive) | > 100 µM (inactive) | > 100 µM (inactive) | > 100 µM (inactive) | > 100 µM (inactive) | – | – | – | –
2 | NC(=S)C1=C(N)Oc2c(c(=O)oc3ccccc23)C1c1ccc(Br)cc1 (centres undefined) | 82.6 µM (inactive) | > 100 µM (inactive) | > 100 µM (inactive) | > 100 µM (inactive) | > 100 µM (inactive) | > 100 µM (inactive) | > 100 µM (inactive) | > 100 µM (inactive) | > 100 µM (inactive) | – | 50.8 µM (inactive) | – | > 100 µM (inactive) | > 100 µM (inactive) | 1.61 µM (inactive) | > 100 µM (inactive) | 40 µM (inactive) | > 100 µM (inactive) | > 100 µM (inactive)
3 | C/C(=N/NC(=S)N1CC2CCC(CC2)C1)c1cnccn1 | 0.828 µM (active) | < 0.01 µM (active) | < 0.01 µM (active) | < 0.0104 µM (active) | 0.255 µM (active) | < 0.01 µM (active) | < 0.01 µM (active) | 0.37 µM (active) | < 0.01 µM (active) | < 0.01 µM (active) | < 0.01 µM (active) | – | 0.109 µM (active) | < 0.01 µM (active) | < 0.01 µM (active) | < 0.01 µM (active) | 0.619 µM (active) | 0.0264 µM (active) | 1.64 µM (inactive)
4 | COc1c(Sc2c(SCSc3cnc4ccccc4c3Sc3cnc4ccccc4c3OC)cnc3ccccc23)cnc2ccccc12 | 21.7 µM (inactive) | 42.5 µM (inactive) | > 100 µM (inactive) | > 100 µM (inactive) | > 100 µM (inactive) | > 100 µM (inactive) | > 100 µM (inactive) | 77.8 µM (inactive) | > 100 µM (inactive) | – | 1.59 µM (inactive) | > 100 µM (inactive) | > 100 µM (inactive) | > 100 µM (inactive) | 21.8 µM (inactive) | > 100 µM (inactive) | 13.2 µM (inactive) | 37.2 µM (inactive) | 29 µM (inactive)
5 | O=[N+]([O-])c1ccc2oc(=N/c3ccccc3)/c(=N\c3ccccc3)[nH]c2c1 | 18 µM (inactive) | 51.1 µM (inactive) | > 100 µM (inactive) | – | > 100 µM (inactive) | 54.3 µM (inactive) | 59.8 µM (inactive) | 54.5 µM (inactive) | 22.6 µM (inactive) | > 100 µM (inactive) | > 100 µM (inactive) | 37.5 µM (inactive) | 39.7 µM (inactive) | – | > 100 µM (inactive) | 88.1 µM (inactive) | 28.2 µM (inactive) | 37.9 µM (inactive) | > 100 µM (inactive)
6 | O=C1/C(=C/c2ccc(Cl)cc2)CSC/C1=C\c1ccc(Cl)cc1 | – | 6.27 µM (inactive) | 1.99 µM (inactive) | 1.84 µM (inactive) | 2.19 µM (inactive) | 5.96 µM (inactive) | 4.08 µM (inactive) | 3.06 µM (inactive) | 3.08 µM (inactive) | 2.2 µM (inactive) | 1.34 µM (inactive) | 1.96 µM (inactive) | 2.76 µM (inactive) | 2.93 µM (inactive) | 2.69 µM (inactive) | 1.91 µM (inactive) | 21.2 µM (inactive) | 3.71 µM (inactive) | 1.87 µM (inactive)
7 | N#Cc1c(NC(=S)Nc2ccccc2)sc2c1CCCC2 | > 100 µM (inactive) | > 100 µM (inactive) | > 100 µM (inactive) | – | > 100 µM (inactive) | > 100 µM (inactive) | – | > 100 µM (inactive) | > 100 µM (inactive) | > 100 µM (inactive) | > 100 µM (inactive) | > 100 µM (inactive) | – | > 100 µM (inactive) | > 100 µM (inactive) | > 100 µM (inactive) | – | > 100 µM (inactive) | > 100 µM (inactive)
8 | CN(C)C1C(O)=C(C(=O)NCN2CCCC2)C(=O)C2(O)C(O)=C3C(=O)c4c(O)cccc4C(C)(O)C3CC12 (centres undefined) | 52.4 µM (inactive) | > 100 µM (inactive) | 69.2 µM (inactive) | 77.3 µM (inactive) | > 100 µM (inactive) | > 100 µM (inactive) | 69.3 µM (inactive) | > 100 µM (inactive) | > 100 µM (inactive) | > 100 µM (inactive) | > 100 µM (inactive) | > 100 µM (inactive) | – | > 100 µM (inactive) | > 100 µM (inactive) | > 100 µM (inactive) | > 100 µM (inactive) | > 100 µM (inactive) | > 100 µM (inactive)
9 | O=C1/C(=C/c2cccc(Br)c2)CSC/C1=C\c1cccc(Br)c1 | – | 2.34 µM (inactive) | 2.38 µM (inactive) | 2.4 µM (inactive) | 4.88 µM (inactive) | 5.33 µM (inactive) | 4.32 µM (inactive) | 2.65 µM (inactive) | 3.45 µM (inactive) | 3.72 µM (inactive) | 1.92 µM (inactive) | 1.99 µM (inactive) | 2.53 µM (inactive) | 3.38 µM (inactive) | 2 µM (inactive) | 1.57 µM (inactive) | 3.36 µM (inactive) | 2.82 µM (inactive) | 2.65 µM (inactive)
10 | COc1ccc(C(=O)/C=C/c2ccc(OCC(=O)O)cc2)cc1 | > 100 µM (inactive) | 83.4 µM (inactive) | – | > 100 µM (inactive) | > 100 µM (inactive) | 43.9 µM (inactive) | > 100 µM (inactive) | 34.4 µM (inactive) | 60.1 µM (inactive) | – | > 100 µM (inactive) | 51.5 µM (inactive) | 46.6 µM (inactive) | 60.4 µM (inactive) | 13 µM (inactive) | 33.6 µM (inactive) | 31.5 µM (inactive) | – | 36.6 µM (inactive)
11 | CCN(CCCl)c1cc(CN(C)C)cc(NC(=O)c2cc(C(=O)Nc3cc(CN(C)C)cc(N(CC)CCCl)c3)n(C)n2)c1 | 0.271 µM (active) | 10.3 µM (inactive) | 1.37 µM (inactive) | 0.381 µM (active) | 2.32 µM (inactive) | 0.065 µM (active) | 0.136 µM (active) | 1.22 µM (inactive) | < 0.01 µM (active) | 1.43 µM (inactive) | 0.0115 µM (active) | 0.236 µM (active) | 0.338 µM (active) | – | 0.0119 µM (active) | 0.0685 µM (active) | 1.11 µM (active) | 0.485 µM (active) | 1.48 µM (inactive)
12 | Nc1nc2cc3nc(N)c(N)nc3cc2nc1N | > 100 µM (inactive) | > 100 µM (inactive) | > 100 µM (inactive) | > 100 µM (inactive) | > 100 µM (inactive) | > 100 µM (inactive) | > 100 µM (inactive) | > 100 µM (inactive) | > 100 µM (inactive) | > 100 µM (inactive) | 30.1 µM (inactive) | > 100 µM (inactive) | > 100 µM (inactive) | > 100 µM (inactive) | 71.8 µM (inactive) | > 100 µM (inactive) | – | – | > 100 µM (inactive)
13 | Nc1ccn(C2OC(COP(=O)(O)O)C(O)C2O)c(=O)n1 (centres undefined) | 28.8 µM (inactive) | 6.38 µM (inactive) | > 63.4 µM (inactive) | 0.982 µM (active) | > 100 µM (inactive) | 10.9 µM (inactive) | 0.422 µM (active) | 37.8 µM (inactive) | 5.31 µM (inactive) | 3.18 µM (inactive) | 0.205 µM (active) | > 100 µM (inactive) | 8.05 µM (inactive) | > 100 µM (inactive) | 3.39 µM (inactive) | 3.08 µM (inactive) | 17.8 µM (inactive) | > 100 µM (inactive) | –
14 | C=CC(C)(C)OC[C@@H]1NC(=O)CNC(=O)[C@@H]2CCCN2C(=O)[C@H](C(C)CC)NC(=O)[C@@H]2CSC(=N2)[C@H](CC(C)C)NC1=O (some centres undefined) (cyclo(GS(Allyl(1,1-Me2))[X53][Ile(3ξ)]P)) | 34.5 µM (inactive) | > 100 µM (inactive) | 38.5 µM (inactive) | > 100 µM (inactive) | > 100 µM (inactive) | 68.4 µM (inactive) | 80 µM (inactive) | > 100 µM (inactive) | > 100 µM (inactive) | > 100 µM (inactive) | 29.2 µM (inactive) | 55.2 µM (inactive) | > 100 µM (inactive) | 47.9 µM (inactive) | 64.4 µM (inactive) | > 100 µM (inactive) | 37.3 µM (inactive) | 22.3 µM (inactive) | –
15 | CC(C)N1CCN(c2ccc(OCC3COC(Cn4cncn4)(c4ccc(Cl)cc4Cl)O3)cc2)CC1 (centres undefined) [TERCONAZOLE] | 12.8 µM (inactive) | 16.7 µM (inactive) | 1.89 µM (inactive) | – | 15 µM (inactive) | 12.3 µM (inactive) | > 35.8 µM (inactive) | 4.86 µM (inactive) | 4.06 µM (inactive) | 15 µM (inactive) | 15.4 µM (inactive) | 13.2 µM (inactive) | 13.3 µM (inactive) | 13.5 µM (inactive) | 3.33 µM (inactive) | 12 µM (inactive) | 13.6 µM (inactive) | 17.2 µM (inactive) | 4.63 µM (inactive)
